Experimental data: patent US20250345317A1, “New pharmaceutical compounds, methods and uses thereof” (BBIT-THERAPEUTICS, LDA., priority 2020, published 2025)

What was measured:
HFF-1 = assay: Growth inhibition, SRB assay, normal HFF-1 cells; assay type: cell-based, human; conditions: Homo sapiens, HFF-1, 48 h
From the text: (§1) Table 2 refers to the growth inhibitory effect of COMP, olaparib and cisplatin (CDDP) in a panel of human immortalized breast (T47D, MCF-7, MDA-MB-231, MDA-MB-468, SK-BR-3 and HCC1937), ovarian and endocervical (OCVAR, SKOV-3, […],IGROV-1 and HeLa), pancreatic (PANC-1 and MIAPACA), neuroblastoma (SHSY-5Y), lung (NCI-H460), prostate (VCaP) melanoma (A375 and SK-MEL-5) and glioblastoma (SF-208) cancer cells, immortalized normal MCF10a and HFF1 human cells, and patient-derived ovarian (PD-OVCA #1, #9, #41, #49 and #62) cancer cells. […] Data are mean±SEM (n=5).
(§2) In an embodiment, IC50 values were determined by Sulforhodamine B (SRB) or MTS [3-(4,5-dimethylthiazol-2-yl)-5-(3-carboxymethoxyphenyl)-2-(4-sulfophenyl)-2H-tetrazolium] assay in immortalized and PD-OVCA cells, respectively. Cancer cells were plated in 96-well plates and incubated for 24 hours. Cells were then exposed to serial dilutions of compounds for 48 hours. The solvent DMSO corresponding to the maximum concentration used in these assays (0.025%) was included as control. Results are the mean±S.E.M. of 3-5 independent experiments.

PD-OVCA#62 = assay: Growth inhibition, MTS assay, PD-OVCA#62; assay type: cell-based, human; conditions: Homo sapiens, PD-OVCA#62, wild-type BRCA1/2, 48 hours
From the text: as §1, §2

[1] = system: patient-derived ovarian cancer cells; assay: Growth inhibition, patient-derived ovarian cancer cells; assay type: cell-based; conditions: Homo sapiens; range over PD-OVCA cells; MTS, 48 hours
Protocol: (§3) In an embodiment, the activity of COMP compound was tested in an array of human normal and cancer cell lines (Table 2, FIG. 2).
as §1, §2

[2] = system: pancreatic cancer cells (PANC-1 and MIAPACA); assay: Growth inhibition, pancreatic cancer cells; assay type: cell-based; conditions: Homo sapiens, Pancreatic cancer cell, 48 hours
Protocol: as §3, §1, §2

MCF7 DR-GFP cells = assay: Chromosomal DR-GFP homologous recombination assay; assay type: cell-based, human; conditions: 2 μM and 6 μM, 48 hours
Protocol: FIG. 9 illustrates the effect of 2 and 6 μM COMP after 48 hours of treatment on homologous recombination activity in MCF7 DR-GFP cells using the chromosomal DR-GFP assay. After 72 hours of double strand breaks induction, MCF7 DR-GFP cells were analysed by flow cytometry to quantify the percentage of GFP-positive cells.
In an embodiment, COMP decreased homologous recombination DNA repair and disrupted the BRCA1-BARD1 interaction.

HCC1937 cells = assay: Wound healing assay (cell migration); assay type: cell-based, human; conditions: 1.9 μM
Protocol: FIG. 12 illustrates the prevention of HCC1937 cells migration by COMP. Confluent cells were treated with 1.9 μM COMP or DMSO and observed at different time-points in the wound healing assay (scale bar=50 μm and magnification=100×).
In an embodiment, COMP prevented cell migration of triple-negative breast cancer cells. The effect of COMP on the migration ability of HCC1937 cells was also studied.

[3] = system: breast cancer cells (T47D, MCF-7, MDA-MB-231, MDA-MB-468, SK-BR-3 and HCC1937); assay: Growth inhibition, panel of breast cancer cells; assay type: cell-based; conditions: Homo sapiens, range over T47D, 48 hours
Protocol: as §3, §1, §2

[4] = system: key proteins involved in homologous recombination, proliferation and chemoresistance; assay: Protein expression by western blot; assay type: cell-based, human; conditions: 12 μM, 48 hours
Protocol: FIG. 6 illustrates the effect of 12 μM COMP on the (A-B) expression of key proteins involved in homologous recombination, proliferation and chemoresistance in triple-negative breast cancer and ovarian cancer cells after 48 hours of treatment.
In an embodiment, the COMP compound modulated the expression of key proteins involved in homologous DNA repair, proliferation, chemoresistance, induced cell cycle arrest, apoptosis and ROS generation, in triple-negative breast cancer and ovarian cancer cells.

MCF10a = assay: Growth inhibition, SRB assay, normal MCF10a cells; assay type: cell-based, human; conditions: Homo sapiens, MCF-10A, 48 hours
From the text: as §1, §2

IGROV-1 tumors = assay: In vivo antitumor activity in xenograft mice; conditions: 2 mg/kg intraperitoneal, seven administrations; compared to vehicle or 50 mg/kg of olaparib
Protocol: FIG. 14 illustrates the in vivo antitumor activity of COMP. C57BL/6-Rag2−/−IL2rg−/− xenograft mice, carrying IGROV-1 cells, were treated with vehicle (control), or 2 mg/kg of COMP or 50 mg/kg of olaparib by intraperitoneal injection three times per week (seven administrations in total). The treatment was initiated when palpable tumors were established (^˜100 mm3). […] In FIGS. 14A-C, data are mean±SEM, n=13 animals.

MCF-7 = assay: Growth inhibition, SRB assay, MCF-7; assay type: cell-based, human; conditions: Homo sapiens, MCF7, 48 h
From the text: as §1, §2

SF-208 = assay: Growth inhibition, SRB assay, SF-208; assay type: cell-based; conditions: Homo sapiens, SF-208, wild-type BRCA1/2, 48 hours
From the text: as §1, §2

SK-BR-3 = assay: Growth inhibition, SRB assay, SK-BR-3; assay type: cell-based, human; conditions: Homo sapiens, SK-BR-3, 48 h
From the text: as §1, §2

NCI-H460 = assay: Growth inhibition, SRB assay, NCI-H460; assay type: cell-based; conditions: Homo sapiens, NCI-H460, wild-type BRCA1/2, 48 hours
From the text: as §1, §2

PANC-1 = assay: Growth inhibition, SRB assay, PANC-1; assay type: cell-based; conditions: Homo sapiens, PANC-1, wild-type BRCA1/2, 48 hours
From the text: as §1, §2

PD-OVCA#49 = assay: Growth inhibition, MTS assay, PD-OVCA#49; assay type: cell-based, human; conditions: Homo sapiens, PD-OVCA#49, wild-type BRCA1/2, 48 hours
From the text: as §1, §2

SKOV-3 = assay: Growth inhibition, SRB assay, SKOV-3; assay type: cell-based, human; conditions: Homo sapiens, SK-OV-3, 48 h
From the text: as §1, §2

[5] = system: ovarian and endocervical cancer cells (OCVAR, SKOV-3, SK-BR-3, IGROV-1 and HeLa); assay: Growth inhibition, panel of ovarian and endocervical cancer cells; assay type: cell-based; conditions: Homo sapiens, range over OCVAR, 48 hours
Protocol: as §3, §1, §2

Compound: CC[C@H]1CN(C)C2Cc3c([nH]c4ccccc34)/C(=N/Nc3ccc(Br)cn3)C[C@@H]1[C@@H]2C(=O)OC [COMP, methyl (5R,6S,14S,E)-8-(2-(5-bromopyridin-2-yl) hydrazineylidene)-5-ethyl-3-methyl-2,3,4,5,6,7,8,9-octahydro-1H-2,6-methanoazecino [5,4-b]indole-14-carboxylate]
- IC50 (HFF-1; HFF1 normal cells, 48 hours (second Table 2)): 33.6 µM
- IC50 (HFF-1; HFF-1 normal cells, 48 hours): 33.6 µM
- IC50 (PD-OVCA#62): 14.2 ± 2.9 µM
- IC50 [1]: 2.68 to 15.1 µM
- IC50 [2]: 4.5 µM
- homologous recombination DNA repair capacity (GFP-positive cells) (MCF7 DR-GFP cells): marked reduction
- wound closure (HCC1937 cells): significantly reduced the wound closure
- IC50 [3]: 4.4 to 12 µM
- PUMA and cleaved PARP protein expression levels [4]: increase
- expression levels of DNA damage repair proteins (BRCA1, BRCA2, RAD51, RAD52, FANCD2, pATM, pATR) and resistance-related proteins (CDK2, survivin, BARD1) [4]: significantly decreased
- expression of p21 [4]: increased expression of p21
- IC50 (MCF10a): 29.5 µM
- growth of IGROV-1 tumors (IGROV-1 tumors): significantly inhibited
- IC50 (MCF-7; MCF-7, BRCA1 wild-type, 48 hours (second Table 2)): 12 µM
- IC50 (MCF-7; MCF-7, wild-type BRCA1/2, 48 hours): 12 ± 1.5 µM
- IC50 (SF-208): 12.5 ± 0.45 µM
- IC50 (SK-BR-3; SK-BR-3, BRCA1 loss of heterozigoty, 48 hours): 5.7 ± 1.4 µM
- IC50 (SK-BR-3; SK-BR-3, BRCA1 loss of heterozygosity, 48 hours (second Table 2)): 5.7 µM
- IC50 (NCI-H460): 15.5 ± 1.5 µM
- IC50 (PANC-1): 4.4 ± 0.9 µM
- IC50 (PD-OVCA#49): 15.1 ± 1.4 µM
- IC50 (SKOV-3; SKOV-3, wild-type BRCA1/2, 48 hours): 8.9 ± 2.5 µM
- IC50 (SKOV-3; Skov-3, BRCA1 wild-type, 48 hours (second Table 2)): 8.9 µM
- IC50 [5]: 4.6 to 13.9 µM
